Data set [1] deals with T1, lipoxygenase 5-LO (Homo sapiens, UniProt P09917).
T1 construct: Ricerca, Taipei, Taiwan
T1 sequence (P09917 1-674): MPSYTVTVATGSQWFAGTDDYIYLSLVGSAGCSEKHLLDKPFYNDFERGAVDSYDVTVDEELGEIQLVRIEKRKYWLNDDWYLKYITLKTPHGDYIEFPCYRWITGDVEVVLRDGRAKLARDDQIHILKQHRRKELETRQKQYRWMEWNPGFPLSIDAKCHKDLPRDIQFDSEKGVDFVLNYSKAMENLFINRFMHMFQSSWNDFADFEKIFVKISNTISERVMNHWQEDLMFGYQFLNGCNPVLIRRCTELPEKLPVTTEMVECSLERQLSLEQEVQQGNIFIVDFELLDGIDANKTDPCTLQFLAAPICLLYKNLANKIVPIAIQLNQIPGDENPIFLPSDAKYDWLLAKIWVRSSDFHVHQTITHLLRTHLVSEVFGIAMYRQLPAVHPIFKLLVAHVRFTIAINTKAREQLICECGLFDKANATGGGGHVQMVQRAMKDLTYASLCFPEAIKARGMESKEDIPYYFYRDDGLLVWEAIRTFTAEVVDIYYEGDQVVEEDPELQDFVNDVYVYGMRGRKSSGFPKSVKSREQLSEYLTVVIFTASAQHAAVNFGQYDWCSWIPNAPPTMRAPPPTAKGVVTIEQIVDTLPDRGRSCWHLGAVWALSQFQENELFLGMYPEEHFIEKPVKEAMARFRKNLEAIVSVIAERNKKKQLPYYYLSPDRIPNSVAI
In words: Lipoxygenase 5-LO enzyme activity. In kind it is biochemical.

For data set [2], the system named is 97 targets. In words: In vitro selectivity profile (Ricerca). The following applies: 10 μM.
Data set [3] concerns BDNF protein levels. Put plainly: BDNF production in primary neurons. The following applies: 24 h. The data set is classed as cell-based, rat. The protocol: BDNF production in primary neurons was measured as previously described. Primary cultures of hippocampal neuronal cells at a density of 5 × 10^4 cells/well plated on poly-L-lysine coated 96-well plates (Sumitomo Bakelite) were treated with compounds in the presence or absence of AMPA (1 μM) and cultured in a humidified CO2 incubator with 5% CO2 at 37 °C for 24 h. The cells were washed once using phosphate buffered saline and were collected using 60 μL of lysis buffer (20 mM Tris-HCl at pH 8.0, 137 mM NaCl, 10% glycerol, 1% NP-40, 1% protease inhibitor cocktail [Sigma-Aldrich, St. Louis, MO]). Concentrations of BDNF protein were measured using BDNF ELISA Kits (Promega, Fitchburg, WI).
Primary cultures of hippocampal neuronal cells were prepared from fetal Sprague-Dawley rats at 19 days of gestation. Rat embryos were decapitated and their whole brains were isolated. Hippocampi were dissected in ice-cold Hanks' Balanced Salt Solutions (HBSS) under a microscope and then dispersed into cells using a neural cell dispersion kit (Sumitomo Bakelite Co., Ltd., Tokyo, Japan). The dissociated cells were suspended in Neurobasal medium containing B27 supplement (Thermo Fisher Scientific Inc.), 2 mM L-glutamine (Lonza, Basel, Switzerland), 100 U/mL penicillin (Lonza), 100 μg/mL streptomycin (Lonza) and 20 μg/mL gentamicin sulfate (Lonza). […]

Data set [4] has as its system BDNF mRNA. Put plainly: BDNF mRNA expression in mouse hippocampus. The data set is classed as in vivo. As to conditions: 3 and 10 mg/kg, p.o. The protocol:
Male ICR mice at 7 weeks old were treated with orally administered vehicle or TAK-653. For the repeated dose study, TAK-653 (0.3 mg/kg, p.o.) or vehicle was administered for 14 days. AMPA at designated doses was intravenously (i.v.) administered 1 h after oral administration. Three hours after i.v. administration of AMPA, right hippocampi were isolated from the mice by euthanasia and acutely frozen on dry ice. Total RNA from mouse hippocampus was extracted with RNeasy 96 kit (Qiagen, Hilden, Germany). Reverse transcription of total RNA was performed using the High-capacity cDNA Archive kit (Life Technologies, Carlsbad, CA). Real-time quantitative PCR was carried out using an ABI PRISM 7900HT sequence detection system (Life Technologies) using PCR reagents (Nippon Gene Co. Limited, Toyama, Japan). Primers used for BDNF analyses were as follows: BDNF forward primer, 5’-[…]-3’; BDNF reverse primer, 5’-[…]-3’; BDNF TaqMan probe, 5’-FAM- […]-TAMRA-3’. Primers used for Gadd45b analyses were as follows: Gadd45b forward primer, 5’-[…]-3’; Gadd45b reverse primer, 5’-GCGCCAGCCTCTGCAT-3’; Gadd45b TaqMan probe, 5’'-FAM-[…]-MGB-3’. […] Concentrations of GAPDH mRNA were used for internal controls and relative BDNF or Gadd45b mRNA/GAPDH mRNA levels were calculated.

For data set [5], the system named is rats. Put plainly: Exposure margin against seizure after acute treatment. The following applies: NOR improvement versus absence of seizure signs. In kind it is in vivo, rat. The protocol: Thus, we decided to calculate the exposure safety margins of AMPA-R potentiators based on the cognitive improvement in the NOR test and the absence of signs of seizures. […] Thus, TAK-653 may have a wider exposure margin than LY451646 in rats.
The data were extracted from the studies conducted in accordance with the Good Laboratory Practice Regulation. […] The dose levels in the first study and second study were set at "100, 15 and 5 mg/kg, p.o." and "50, 15 and 5 mg/kg, p.o.", respectively. The dosing suspensions were administered into the stomach via a catheter in the morning at the dose volume of 5 mL/kg. Cage side observations to confirm tonic or […] convulsions were conducted before and at 1, 2, 4, 8 and 24 h after dosing in the first study and before and at 1, 4 and 24 h after dosing in the second study.
The Sprague–Dawley rats treated with orally administered TAK-653 were decapitated at each time point, and trunk blood was collected into 1.5-mL centrifuge tubes. Plasma was separated from the blood samples by centrifugation. The concentrations of TAK-653 in the plasma were determined using liquid chromatography/tandem mass spectrometry (LC/MS/MS).

One may read the IC50 as the point on the concentration scale where inhibition reaches its midpoint. Low readings indicate inhibition by little substance, high ones a need for much substance. `CC1=CN2CCS(=O)(=O)N=C2C(c2ccc(OC3CCCCC3)cc2)=N1` [TAK-653, 9-[4-(Cyclohexyloxy)phenyl]-7-methyl-3,4-dihydropyrazino[2,1-c][1,2,4]thiadiazine 2,2-dioxide] returned a 50% inhibitory concentration (IC50) in data set [1] of 5.9 µM. Also, the “Selectivity against 97 targets” value in data set [2] was “highly selective”. The BDNF protein levels result in data set [3] (compound alone at 1 μM) is “slightly increased”; in data set [3] (in the presence of AMPA (1 μM)), “robustly increased”. Moreover, the “BDNF mRNA levels in hippocampus” value is “significantly increased” in data set [4] (AMPA (3.5 mg/kg, i.v.)-treated mice) and “did not increase” in data set [4] (compound alone). In addition, the “Margin based on AUCplasma” value in data set [5] is on record as 1017 fold. Besides, the “Margin based on plasma Cmax” value in data set [5] was found to be 419 fold.

The record behind these values is publication PMC8282797, “Strictly regulated agonist-dependent activation of AMPA-R is the key characteristic of TAK-653 for robust synaptic responses and cognitive improvement” (Scientific Reports, 2021).
